Bounds are passed on as bounds.

This is an account of results in patent publication US20220363709A1, “ECTONU[…] METHODS OF USE THEREOF” (priority 2019, published 2022).

For one experiment, the target named is T1, recombinant CD73 (Homo sapiens, UniProt P21589).
T1 construct: purchased R&D Systems 5795-EN-010
T1 sequence (P21589 27-547 limits assumed): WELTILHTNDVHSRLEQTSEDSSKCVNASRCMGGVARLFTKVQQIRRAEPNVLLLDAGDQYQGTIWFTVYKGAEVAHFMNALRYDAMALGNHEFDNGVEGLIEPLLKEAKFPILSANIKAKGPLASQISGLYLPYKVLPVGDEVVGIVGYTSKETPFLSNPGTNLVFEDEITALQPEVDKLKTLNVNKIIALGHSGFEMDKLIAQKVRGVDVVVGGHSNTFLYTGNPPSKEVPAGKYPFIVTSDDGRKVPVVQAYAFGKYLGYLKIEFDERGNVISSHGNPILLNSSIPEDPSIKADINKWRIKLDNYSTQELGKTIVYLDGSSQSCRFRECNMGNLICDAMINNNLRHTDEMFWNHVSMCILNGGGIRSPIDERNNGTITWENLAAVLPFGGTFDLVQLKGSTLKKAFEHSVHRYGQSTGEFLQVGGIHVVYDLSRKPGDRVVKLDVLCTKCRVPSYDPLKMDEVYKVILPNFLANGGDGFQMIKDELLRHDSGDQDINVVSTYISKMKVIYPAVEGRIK
The experiment is described as follows: Assay 1: Inhibition of the CD73 Enzyme In Vitro. Format: biochemical.
Conditions: not given
How it is done:
Serial dilutions of test compounds were incubated with recombinant CD73 and AMP in reaction buffer (25 mM Tris HCl pH7.5, 5 mM MgCl2, 50 mM NaCl, 0.25 mM DTT, 0.005% Triton X-100). The final reaction volume was 25 μL and the final concentrations of recombinant CD73 and AMP were 0.5 nM and 50 μM, respectively. […] After 5 minutes at room temperature, absorbance at 630 nm was determined on a microplate spectrophotometer. The concentration of inorganic phosphate was determined using a phosphate standard curve.
ND indicates not determined.
As a reminder, the IC50 is the concentration at which inhibition is half-maximal. As for `Nc1nc(Cl)nc2c1ncn2[C@@H]1O[C@H](COC(Cc2ccc(-c3ccccc3C(=O)O)cc2)(C(=O)O)c2cscn2)C[C@H]1O` (stereo partly drawn) [Example 50, 4′-(2-(((2S,4R,5R)-5-(6-amino-2-chloro-9H-purin-9-yl)-4-hydroxytetrahydrofuran-2-yl)methoxy)-2-carboxy-2-(thiazol-4-yl)ethyl)-[1,1′-biphenyl]-2-carboxylic acid], the IC50 was greater than 1000 nM.

Staying with this experiment, now noted: soluble recombinant CD73 0.5 nM, AMP 50 μM, 30 minutes at room temperature, Malachite Green, absorbance at 630 nm; read-out: Assay 1 CD73 IC50.
On to `CCCCOc1nc(Cl)nc2c1ncn2[C@@H]1O[C@H](COC(Cc2ccccc2)(C(=O)O)c2cscn2)[C@@H](O)[C@@H]1F` (mixture of isomers) [Example 23, 2-(((2R,3R,4S,5R)-5-(6-butoxy-2-chloro-9H-purin-9-yl)-4-fluoro-3-hydroxytetrahydrofuran-2-yl)methoxy)-3-phenyl-2-(thiazol-4-yl)propanoic acid], for which the IC50 was found to be 3420 nM.

For `Nc1nc(Cl)nc2c1ncn2[C@@H]1O[C@H](CO[C@](Cc2ccc(-c3ccc(C(=O)O)cc3)cc2)(C(=O)O)c2cscn2)[C@@H](O)[C@@H]1F` (single isomer, unassigned) [Example 10], the IC50 was 227 nM.

For the molecule `Nc1nc(Cl)nc2c1ncn2[C@@H]1O[C@H](COC(Cc2cccc(C(=O)O)c2)(C(=O)O)c2cscn2)[C@@H](O)[C@@H]1F` (mixture of isomers) [Example 17, 3-(2-(((2R,3R,4S,5R)-5-(6-amino-2-chloro-9H-purin-9-yl)-4-fluoro-3-hydroxytetrahydrofuran-2-yl)methoxy)-2-carboxy-2-(thiazol-4-yl)ethyl)benzoic acid], the IC50 came out at 740 nM.

With `Nc1nc(Cl)nc2c1ncn2[C@@H]1O[C@H](COC(Cc2ccc(-c3ccccc3C(=O)O)cc2)(C(=O)O)c2ccsc2)[C@@H](O)[C@H]1O` (mixture of isomers) [Example 49, 4′-(2-(((2R,3S,4R,5R)-5-(6-amino-2-chloro-9H-purin-9-yl)-3,4-dihydroxytetrahydrofuran-2-yl)methoxy)-2-carboxy-2-(thiophen-3-yl)ethyl)-[1,1′-biphenyl]-2-carboxylic acid], the 50% inhibitory concentration (IC50) turned out to be 2270 nM.

As to `N#Cc1ccccc1-c1ccc(CC(OC[C@H]2O[C@@H](n3cnc4c(N)nc(Cl)nc43)[C@@H](F)[C@@H]2O)(C(=O)O)c2cscn2)cc1` (mixture of isomers) [Example 12, 2-(((2R3R,4S,5R)-5-(6-amino-2-chloro-9H-purin-9-yl)-4-fluoro-3-hydroxytetrahydrofuran-2-yl)methoxy)-3-(2′-cyano-[1,1′-biphenyl]-4-yl)-2-(thiazol-4-yl)propanoic acid], the IC50 was 433 nM.

`CS(=O)(=O)Nc1ccccc1-c1ccc(C[C@@](OC[C@H]2O[C@@H](n3cnc4c(N)nc(Cl)nc43)[C@H](O)[C@@H]2O)(C(=O)O)c2cscn2)cc1` (single isomer, unassigned) [Example 41]: the IC50 came out at 43 nM.

With `Nc1nc(Cl)nc2c1ncn2[C@@H]1O[C@H](CO[C@](Cc2ccc(-c3ccccc3CC(=O)O)cc2)(C(=O)O)c2cscn2)[C@@H](O)[C@H]1O` (single isomer, unassigned) [Example 6], the IC50 came to 39 nM.

On to `Nc1nc(Cl)nc2c1ncn2[C@@H]1O[C@H](COC(Cc2ccccc2)(C(=O)O)c2cscn2)[C@@H](O)[C@H]1O` (mixture of isomers) [Example 26, 2-(((2R,3S,4R,5R)-5-(6-amino-2-chloro-9H-purin-9-yl)-3,4-dihydroxytetrahydrofuran-2-yl)methoxy)-3-phenyl-2-(thiazol-4-yl)propanoic acid], for which the IC50 came out at 400 nM.

As for `Nc1nc(Cl)nc2c1ncn2[C@@H]1O[C@H](COC(Cc2ccc(-c3ccccc3C(=O)O)cc2)(C(=O)O)c2cscn2)[C@@H](O)[C@@H]1F` (mixture of isomers) [Example 13, 4′-(2-(((2R,3R,4S,5R)-5-(6-amino-2-chloro-9H-purin-9-yl)-4-fluoro-3-hydroxytetrahydrofuran-2-yl)methoxy)-2-carboxy-2-(thiazol-4-yl)ethyl)-[1,1′-biphenyl]-2-carboxylic acid], the half-inhibitory concentration (IC50) is 218 nM.

Consider `Nc1nc(Cl)nc2c1ncn2[C@@H]1O[C@H](COC(Cc2ccc(-c3ccccc3)cc2)(C(=O)O)c2cscn2)[C@@H](O)[C@H]1O` (mixture of isomers) [Example 1, 3-([1,1′-biphenyl]-4-yl)-2-(((2R,3S,4R,5R)-5-(6-amino-2-chloro-9H-purin-9-yl)-3,4-dihydroxytetrahydrofuran-2-yl)methoxy)-2-(thiazol-4-yl)propanoic acid], for which the IC50 came out at 99 nM.

For the molecule `Nc1nc(Cl)nc2c1ncn2[C@@H]1O[C@H](CO[C@@](Cc2ccc(-c3ccc[nH]c3=O)cc2)(C(=O)O)c2cscn2)[C@@H](O)[C@@H]1F` (single isomer, unassigned) [Example 22], the IC50 was 2980 nM.

For the molecule `COc1cccc(CO)c1-c1ccc(C[C@@](OC[C@H]2O[C@@H](n3cnc4c(N)nc(Cl)nc43)[C@H](O)[C@@H]2O)(C(=O)O)c2cscn2)cc1` (single isomer, unassigned) [Example 39], the IC50 was 68 nM.

Turning to `CNS(=O)(=O)c1ccccc1-c1ccc(CC(OC[C@H]2O[C@@H](n3cnc4c(N)nc(Cl)nc43)[C@H](O)[C@@H]2O)(C(=O)O)c2cscn2)cc1` (mixture of isomers) [Example 38, 2-(((2R,3S,4R,5R)-5-(6-amino-2-chloro-9H-purin-9-yl)-3,4-dihydroxytetrahydrofuran-2-yl)methoxy)-3-(2′-(N-methylsulfamoyl)-[1,1′-biphenyl]-4-yl)-2-(thiazol-4-yl)propanoic acid], the IC50 amounted to 42 nM.

`Nc1nc([C@@](Cc2ccccc2)(OC[C@H]2O[C@@H](n3cnc4c(N)nc(Cl)nc43)[C@H](O)[C@@H]2O)C(=O)O)cs1` (single isomer, unassigned) [Example 31]: the IC50 was found to be 1970 nM.

For `Nc1nc(Cl)nc2c1ncn2[C@@H]1O[C@H](CO[C@](Cc2ccc(C(=O)O)cc2)(C(=O)O)c2cscn2)[C@@H](O)[C@@H]1F` (single isomer, unassigned) [Example 15], the IC50 amounted to 296 nM.

For the molecule `Nc1nc(Cl)nc2c1ncn2[C@@H]1O[C@H](COC(C(=O)O)c2cscn2)[C@@H](O)[C@@H]1F` (mixture of isomers) [Example 14, 2-(((2R3R,4S,5R)-5-(6-amino-2-chloro-9H-purin-9-yl)-4-fluoro-3-hydroxytetrahydrofuran-2-yl)methoxy)-2-(thiazol-4-yl)acetic acid], the IC50 turned out to be 22100 nM.

With `Nc1nc(Cl)nc2c1ncn2[C@@H]1O[C@H](CO[C@@](Cc2ccc(-c3ccccc3CC(=O)O)cc2)(C(=O)O)c2cscn2)[C@@H](O)[C@H]1O` (single isomer, unassigned) [Example 7], the IC50 stood at 1030 nM.

As to `CCCNc1nc(Cl)nc2c1ncn2[C@@H]1O[C@H](COC(Cc2ccccc2)(C(=O)O)c2cscn2)[C@@H](O)[C@@H]1F` (mixture of isomers) [Example 24, 2-(((2R,3R4S,5R)-5-(2-chloro-6-(propylamino)-9H-purin-9-yl)-4-fluoro-3-hydroxytetrahydrofuran-2-yl)methoxy)-3-phenyl-2-(thiazol-4-yl)propanoic acid], the IC50 was 1240 nM.

In the case of `Nc1nc([C@](Cc2ccccc2)(OC[C@H]2O[C@@H](n3cnc4c(N)nc(Cl)nc43)[C@H](O)[C@@H]2O)C(=O)O)cs1` (single isomer, unassigned) [Example 30], the IC50 is 342 nM.

For `Nc1nc(Cl)nc2c1ncn2[C@@H]1O[C@H](CO[C@@](Cc2ccc(-c3ccc(C(=O)O)cc3)cc2)(C(=O)O)c2cscn2)[C@@H](O)[C@@H]1F` (single isomer, unassigned) [Example 11], the IC50 is 1530 nM.

For `COc1ncccc1-c1ccc(C[C@@](OC[C@H]2O[C@@H](n3cnc4c(N)nc(Cl)nc43)[C@@H](F)[C@@H]2O)(C(=O)O)c2cscn2)cc1` (single isomer, unassigned) [Example 19], the IC50 was 170 nM.

Take `Nc1nc(Cl)nc2c1ncn2[C@@H]1O[C@H](COC(Cc2ccccc2)(C(=O)O)c2cc[nH]n2)[C@@H](O)[C@H]1O` (mixture of isomers) [Example 32, 2-(((2R,3S,4R,5R)-5-(6-amino-2-chloro-9H-purin-9-yl)-3,4-dihydroxytetrahydrofuran-2-yl)methoxy)-3-phenyl-2-(1H-pyrazol-3-yl)propanoic acid]: the IC50 turned out to be 2060 nM.

For `Nc1nc(Cl)nc2c1ncn2[C@@H]1O[C@H](CO[C@](Cc2ccccc2)(C(=O)O)c2cocn2)[C@@H](O)[C@H]1O` (single isomer, unassigned) [Example 35], the IC50 was found to be 290 nM.

On to `Nc1nc(Cl)nc2c1ncn2[C@@H]1O[C@H](COC(Cc2ccc(-c3ccccc3CC(=O)O)cc2)(C(=O)O)c2cscn2)[C@@H](O)[C@@H]1F` (mixture of isomers) [Example 18, 2-(((2R3R,4S,5R)-5-(6-amino-2-chloro-9H-purin-9-yl)-4-fluoro-3-hydroxytetrahydrofuran-2-yl)methoxy)-3-(2′-(carboxymethyl)-[1,1′-biphenyl]-4-yl)-2-(thiazol-4-yl)propanoic acid], for which the IC50 was 182 nM.
